Experimental data as given in paper PMC7115876 (Nature, 2020).

How the values were obtained:
β44–V2R = assay: Arrestin recruitment bias from GloSensor cAMP; type: cell-based, turkey (Meleagris gallopavo); conditions: with reference to isoprenaline, equiactive comparison approach
MBP–β1AR6P = MBP–β1AR6P (Meleagris gallopavo, UniProt P07700, C116L/C358A/D322K/DEL244-271/E130W/F327A/F338M/M44C/M90V/V103C); assay: Radioligand saturation binding, receptor in nanodiscs; parameters: species or system turkey (Meleagris gallopavo); conditions: read-out: apparent Kd
MBP–β1AR6P + mini-Gs = MBP–β1AR6P + mini-Gs (Meleagris gallopavo, UniProt P07700, C116L/C358A/D322K/DEL244-271/E130W/F327A/F338M/M44C/M90V/V103C); assay: Radioligand saturation binding, receptor in nanodiscs with mini-Gs; parameters: species or system turkey (Meleagris gallopavo); conditions: read-out: apparent Kd
MBP–β1AR6P + βarr1 = MBP–β1AR6P + βarr1 (Meleagris gallopavo, UniProt P07700, C116L/C358A/D322K/DEL244-271/E130W/F327A/F338M/M44C/M90V/V103C); assay: Radioligand saturation binding, receptor in nanodiscs with βarr1; parameters: species or system turkey (Meleagris gallopavo); conditions: read-out: apparent Kd

| SMILES | bias factor (arrestin recruitment bias) (β44–V2R) | Kd (MBP–β1AR6P) | Kd (MBP–β1AR6P + mini-Gs) | Kd (MBP–β1AR6P + βarr1) |
| --- | --- | --- | --- | --- |
| COc1ccc(CC(C)NCC(O)c2ccc(O)c(NC=O)c2)cc1 (stereo not shown) [formoterol] | 2.3 ± 0.4 |  |  |  |
| CCCc1ccccc1OCC(O)CNC(C)C (stereo not shown) [[^3H]DHA, tritiated dihydroalprenolol] |  | 6 nM | 1.5 nM | 6 nM |
